# Test results published in PubChem BioAssay AID1918948 (Molecular Pharmacology Branch, DTP, NCI, 2023).
# “And” between values parts separate entries of the source, which are not always exact repeats. Equal entries are not always repeated.
# Test system: K-562 leukemia growth, % test/control
# Test: Anticancer human tumor K-562 cell line growth inhibition;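 also: spheroids exposed to compounds for 7 days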;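 as to viability, T/C: 100% = DMSO vehicle wells and lower values mean fewer viable cells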
# Conditions: spheroids with HUVEC and MSC; for viability, T/C: stronger effect = lower value
# Summary of the method: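 Drug combinations with the LSD1 inhibitor iadademstat tested on tumor cells co-cultured as spheroids with endothelial cells and mesenchymal stem cells. Concentrations descended in half-log increments from clinical Cmax or 10 microM.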
# [1] = curve of first compound, second compound 0.1 µM
# [2] = curve of first compound, second compound 0.316 µM
# [3] = curve of first compound, second compound 1 µM
# [4] = curve of first compound, second compound 3.16 µM
# [5] = curve of first compound, second compound 10 µM
# [6] = second compound 0.1 µM, first compound 0.00316 µM
# [7] = second compound 0.1 µM, first compound 0.01 µM
# [8] = second compound 0.1 µM, first compound 0.0316 µM
# [9] = second compound 0.1 µM, first compound 0.1 µM
# [10] = second compound 0.1 µM, first compound 0.316 µM
# [11] = second compound 0.1 µM, first compound 1 µM
# [12] = second compound 0.316 µM, first compound 0.00316 µM
# [13] = second compound 0.316 µM, first compound 0.01 µM
# [14] = second compound 0.316 µM, first compound 0.0316 µM
# [15] = second compound 0.316 µM, first compound 0.1 µM
# [16] = second compound 0.316 µM, first compound 0.316 µM
# [17] = second compound 0.316 µM, first compound 1 µM
# [18] = second compound 1 µM, first compound 0.00316 µM
# [19] = second compound 1 µM, first compound 0.01 µM
# [20] = second compound 1 µM, first compound 0.0316 µM
# [21] = second compound 1 µM, first compound 0.1 µM
# [22] = second compound 1 µM, first compound 0.316 µM
# [23] = second compound 1 µM, first compound 1 µM
# [24] = second compound 3.16 µM, first compound 0.00316 µM
# [25] = second compound 3.16 µM, first compound 0.01 µM
# [26] = second compound 3.16 µM, first compound 0.0316 µM
# [27] = second compound 3.16 µM, first compound 0.1 µM
# [28] = second compound 3.16 µM, first compound 0.316 µM
# [29] = second compound 3.16 µM, first compound 1 µM
# [30] = second compound 10 µM, first compound 0.00316 µM
# [31] = second compound 10 µM, first compound 0.01 µM
# [32] = second compound 10 µM, first compound 0.0316 µM
# [33] = second compound 10 µM, first compound 0.1 µM
# [34] = second compound 10 µM, first compound 0.316 µM
# [35] = second compound 10 µM, first compound 1 µM
smiles,measurement,setting,value
O=C(C=Cc1cccc(S(=O)(=O)Nc2ccccc2)c1)NO,"viability, T/C",compound 0.00949 µM,100% and 96%
same,"viability, T/C",compound 0.03 µM,98.5% and 97.4%
same,"viability, T/C",compound 0.0949 µM,101% and 98.3%
same,"viability, T/C",compound 0.3 µM,83.7% and 5.37%
same,"viability, T/C",compound 0.949 µM,2.11% and 0.8%
same,IC50,curve of compound,483 nM and 235 nM
NC1CC1c1ccc(-c2cccc(O)c2)cc1 (stereo unspecified),"viability, T/C",compound 0.1 µM,109%
same,"viability, T/C",compound 0.316 µM,104% [middle of 25 runs]
same,"viability, T/C",compound 1 µM,99.9% [middle of 25 runs]
same,"viability, T/C",compound 3.16 µM,100% [middle of 24 runs]
same,"viability, T/C",compound 10 µM,98.8% [middle of 25 runs]
same,IC50,"compound alone, run of 02/01/2022",> 10000 nM
CC1COCCN1c1cc(-c2ccnn2C)c2ccnc(-c3ccn[nH]3)c2n1 (stereo unspecified) + NC1CCC(NC2CC2c2ccccc2)CC1,IC50,[1],11.2 nM
same,IC50,[2],12.2 nM
same,IC50,[3],11.4 nM
same,IC50,[4],10.1 nM
same,IC50,[5],7.2 nM
same,"viability, T/C",[6],90.4%
same,"viability, T/C",[7],54.5%
same,"viability, T/C",[8],10.2%
same,"viability, T/C",[9],3.75%
same,"viability, T/C",[10],2.62%
same,"viability, T/C",[11],2.45%
same,"viability, T/C",[12],91%
same,"viability, T/C",[13],57.9%
same,"viability, T/C",[14],12.9%
same,"viability, T/C",[15],3.52%
same,"viability, T/C",[16],2.63%
same,"viability, T/C",[17],2.48%
same,"viability, T/C",[18],92.7%
same,"viability, T/C",[19],55.1%
same,"viability, T/C",[20],9.5%
same,"viability, T/C",[21],3.51%
same,"viability, T/C",[22],2.76%
same,"viability, T/C",[23],2.82%
same,"viability, T/C",[24],92.2%
same,"viability, T/C",[25],50.2%
same,"viability, T/C",[26],11.5%
same,"viability, T/C",[27],3.8%
same,"viability, T/C",[28],3.16%
same,"viability, T/C",[29],2.7%
same,"viability, T/C",[30],83.3%
same,"viability, T/C",[31],36.7%
same,"viability, T/C",[32],8.26%
same,"viability, T/C",[33],4.09%
same,"viability, T/C",[34],2.75%
same,"viability, T/C",[35],3.72%
CC1COCCN1c1cc(C2(S(C)(=N)=O)CC2)nc(-c2ccnc3[nH]ccc23)n1 (stereo unspecified),"viability, T/C",compound 0.0316 µM,91.2% and 107%
same,"viability, T/C",compound 0.1 µM,89.3% and 102%
same,"viability, T/C",compound 0.316 µM,74.7% and 91.8%
same,"viability, T/C",compound 1 µM,29.1% and 74.6%
same,"viability, T/C",compound 3.16 µM,5.34% and 10.9%
same,"viability, T/C",compound 10 µM,2.87% and 2.76%
same,IC50,curve of compound,589 nM and 1550 nM
O=C(C=Cc1cccc(S(=O)(=O)Nc2ccccc2)c1)NO + NC1CCC(NC2CC2c2ccccc2)CC1,IC50,[1],417 nM
same,IC50,[2],421 nM
same,IC50,[3],430 nM
same,IC50,[4],325 nM
same,IC50,[5],136 nM
same,"viability, T/C","second compound 0.1 µM, first compound 0.00949 µM",103%
same,"viability, T/C","second compound 0.1 µM, first compound 0.03 µM",105%
same,"viability, T/C","second compound 0.1 µM, first compound 0.0949 µM",106%
same,"viability, T/C","second compound 0.1 µM, first compound 0.3 µM",69.5%
same,"viability, T/C","second compound 0.1 µM, first compound 0.949 µM",1.52%
same,"viability, T/C","second compound 0.1 µM, first compound 3 µM",0.12%
same,"viability, T/C","second compound 0.316 µM, first compound 0.00949 µM",106%
same,"viability, T/C","second compound 0.316 µM, first compound 0.03 µM",107%
same,"viability, T/C","second compound 0.316 µM, first compound 0.0949 µM",108%
same,"viability, T/C","second compound 0.316 µM, first compound 0.3 µM",70.2%
same,"viability, T/C","second compound 0.316 µM, first compound 0.949 µM",1.56%
same,"viability, T/C","second compound 0.316 µM, first compound 3 µM",0.11%
same,"viability, T/C","second compound 1 µM, first compound 0.00949 µM",106%
same,"viability, T/C","second compound 1 µM, first compound 0.03 µM",107%
same,"viability, T/C","second compound 1 µM, first compound 0.0949 µM",105%
same,"viability, T/C","second compound 1 µM, first compound 0.3 µM",72%
same,"viability, T/C","second compound 1 µM, first compound 0.949 µM",1.58%
same,"viability, T/C","second compound 1 µM, first compound 3 µM",0.93%
same,"viability, T/C","second compound 3.16 µM, first compound 0.00949 µM",101%
same,"viability, T/C","second compound 3.16 µM, first compound 0.03 µM",99.8%
same,"viability, T/C","second compound 3.16 µM, first compound 0.0949 µM",97.4%
same,"viability, T/C","second compound 3.16 µM, first compound 0.3 µM",53.7%
same,"viability, T/C","second compound 3.16 µM, first compound 0.949 µM",1.85%
same,"viability, T/C","second compound 3.16 µM, first compound 3 µM",0.87%
same,"viability, T/C","second compound 10 µM, first compound 0.00949 µM",65.4%
same,"viability, T/C","second compound 10 µM, first compound 0.03 µM",59.1%
same,"viability, T/C","second compound 10 µM, first compound 0.0949 µM",61.2%
same,"viability, T/C","second compound 10 µM, first compound 0.3 µM",25.9%
same,"viability, T/C","second compound 10 µM, first compound 0.949 µM",1.37%
same,"viability, T/C","second compound 10 µM, first compound 3 µM",0.45%
CCc1c2c(nc3ccc(O)cc13)-c1cc3c(c(=O)n1C2)COC(=O)[C@]3(O)CC,"viability, T/C",compound 0.000949 µM,15% and 13.4%
same,"viability, T/C",compound 0.003 µM,10.5% and 9.22%
same,"viability, T/C",compound 0.00949 µM,5.78% and 4.21%
same,"viability, T/C",compound 0.03 µM,2.47% and 1.25%
same,"viability, T/C",compound 0.0949 µM,0.78% and 0.75%
same,"viability, T/C",compound 0.3 µM,0.65% and 0.82%
same,IC50,curve of compound,< 0.949 nM
Nc1ncn(C2CC(O)C(CO)O2)c(=O)n1 (stereo unspecified) + NC1CCC(NC2CC2c2ccccc2)CC1,IC50,[1],695 nM
same,IC50,[2],770 nM
same,IC50,[3],640 nM
same,IC50,[4],396 nM
same,IC50,[5],69.5 nM
same,"viability, T/C",[6],102%
same,"viability, T/C",[7],98.2%
same,"viability, T/C",[8],89.2%
same,"viability, T/C",[9],71.4%
same,"viability, T/C",[10],54.7%
same,"viability, T/C",[11],47.8%
same,"viability, T/C",[12],104%
same,"viability, T/C",[13],100%
same,"viability, T/C",[14],90.3%
same,"viability, T/C",[15],71%
same,"viability, T/C",[16],56.4%
same,"viability, T/C",[17],48%
same,"viability, T/C",[18],103%
same,"viability, T/C",[19],100%
same,"viability, T/C",[20],89.4%
same,"viability, T/C",[21],72.4%
same,"viability, T/C",[22],56.3%
same,"viability, T/C",[23],46.1%
same,"viability, T/C",[24],102%
same,"viability, T/C",[25],99.5%
same,"viability, T/C",[26],88.1%
same,"viability, T/C",[27],68.4%
same,"viability, T/C",[28],50.8%
same,"viability, T/C",[29],45%
same,"viability, T/C",[30],89.3%
same,"viability, T/C",[31],84.5%
same,"viability, T/C",[32],64.2%
same,"viability, T/C",[33],45%
same,"viability, T/C",[34],25.6%
same,"viability, T/C",[35],24.9%
